Reference: patent US8487104B2, “KAT II inhibitors” (Pfizer Inc., priority 2010, dated 2013)
Structures can show the parent of a compound that is named as a salt. Where two headings read alike, the source gives them in different places.

Assays:
human hepatocytes = test: Human Hepatocyte Assay (HHEP); type: in vitro ADME; details: 1 μM test compound, 0.5 million viable cells/mL
[1] = target: human KAT II (hKAT II) enzyme (Homo sapiens, UniProt Q8N5Z0); test: Human KAT II Inhibition Spectra Assay; type: biochemical
Sequence of human KAT II (hKAT II) enzyme (Q8N5Z0 30-425): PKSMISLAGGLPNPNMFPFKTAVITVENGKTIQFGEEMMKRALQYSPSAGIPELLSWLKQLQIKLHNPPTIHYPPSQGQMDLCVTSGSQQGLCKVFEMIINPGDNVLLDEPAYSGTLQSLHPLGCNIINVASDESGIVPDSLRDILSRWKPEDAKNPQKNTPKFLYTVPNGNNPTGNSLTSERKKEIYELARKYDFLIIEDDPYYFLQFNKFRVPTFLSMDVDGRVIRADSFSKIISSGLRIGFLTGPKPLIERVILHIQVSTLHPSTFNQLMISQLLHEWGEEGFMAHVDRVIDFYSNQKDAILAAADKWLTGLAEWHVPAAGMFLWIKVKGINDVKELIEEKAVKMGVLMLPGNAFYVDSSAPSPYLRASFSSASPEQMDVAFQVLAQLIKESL
Description: Human KAT II Inhibition Spectra Assay Formation of kynurenic acid (KYNA) is indirectly assessed by a decrease in light absorbance at 370 nm (OD370) as the L-kynurenine (KYN) substrate is converted by the human KAT II (hKAT II) enzyme into KYNA. An inhibitor would therefore inhibit the decrease in OD370. The protocol was performed by placing the following reagents into a Costar 384 well black plate (30 μL total assay volume/well): • 10 μL of 3× concentrated compound; • 10 μL of 3× concentrated substrate mix (BGG (Sigma G-5009); 3 mM L-Kynurenine in 150 mM Tris Acetate (Sigma K3750); 3 mM α-ketoglutaric acid in 150 mM Tris Acetate (Sigma K2010); and 210 μM pyridoxal 5-phosphate (PLP) in 150 mM Tris Acetate (Sigma 9255)); and • 10 μL of 3× concentrated enzyme (15 nM enzyme in 150 mM Tris Acetate with 0.3% bovine serum). Plates were sealed and incubated at 37° C. for 15-20 h before reading OD370 on a SpectraMax Plus plate reader. IC50s were generated by comparing the efficacy of compounds across a concentration range to inhibit a reduction in the OD370 value relative to assay wells with DMSO added in place of concentrated compound. Biological data for the Examples may be found Tables 1 and 2.

human KATII enzyme = human KATII enzyme (Homo sapiens, UniProt Q8N5Z0); test: KATII Kinetic Assay (kinact/KI determination); type: biochemical; details: read-out: hKATII kinact/KI
Sequence of human KATII enzyme (Q8N5Z0 30-425): as above
Description: The compounds of the present invention are irreversible inhibitors of KATII. Potency of irreversible inhibitors is best characterized by kinact/KI (See Copeland, R. A.; “Evaluation of Enzyme Inhibitors in Drug Discovery,” Wiley, 2005).
Test compounds were dissolved in 100% DMSO and diluted to the required concentrations in 100% DMSO. An additional aqueous dilution was made so that the compound at 3× final concentration was 1.0% DMSO in the assay specific buffer. Compounds were tested at 11 concentrations. Final DMSO concentrations in the assay plate were equal to 0.33%.
KATII enzyme activity was followed by measuring the loss of absorbance of the L-KYN substrate at an absorbance wavelength of 370 nm. The KATII assays were run in a 384 well format at a final volume of 30 μL using 150 mM Tris Acetate buffer (pH7.0), 1 mM L-KYN,1 mM α-ketoglutaric acid, 70 μM PLP, 0.1% BGG and either 30 nM human KATII enzyme or 5 nM rat KATII enzyme KATII enzyme. Compound was diluted in 100% DMSO and spotted prior to the addition of the other reagents. Enzyme was always added last. Assay plates were sealed around the edges with tape and immediately read on a SpectraMax plate reader at an absorbance wavelength of 370 nm. The SpectraMax plate reader was set up to read every 5 min for 16 hours.
The following steps are taken to ensure consistent production of kinetic read data: • 1. A 10 μL aliquot of the compound dilutions (described above in compound preparation) was added to the assay plate by hand followed by a quick spin to ensure compound was collected at bottom of well. • 2. A 10 μL aliquot of substrate mix containing the L-KYN, a-ketoglutaric acid and PLP was then added to the assay plate via a Multidrop instrument. • 3. Finally, a 10 μL aliquot of a 3× concentration of enzyme stock soluton was added last to initiate the reaction via a Multidrop instrument. • 4. The microplate lid was placed onto the assay plate and taped to seal in humidity, and the assay plate was put into the SpectraMax reader. A quick vibration on the plate platform was done to ensure mixing, and the absorbance was read (wavelength of 370 nm) every 5 min over 16 h at room temperature. Determination of Potencies (kinact/Kl Values)
The direct substrate absorbance loss assay described above was performed for the determination of potencies (kinact/Kl values). The overall potency, kinact/K1 values, were determined using the general approach described by M. Mileni et al., Proc. Natl. Acad. Sci. USA 2008, 105 12820-12824 and K. Ahn et al. Chem. Biol. 2009, 16, 411-420. Reaction progress curves (decrease in A370 nm with time) were obtained in the presence of eleven concentrations of inhibitor with top dose at […]. A null inhibitor control is always included. Absorbance read data were collected for 16 hours at 5 minute intervals. […] Each progress curve was fit to a one phase exponential decay model (equation 1) to determine kobserved (kobs) values at each inhibitor concentration, where At is absorbance at time t, A0 is the absorbance at t=infinite, A1 is a total absorbance change (the absorbance difference between t=0 and t=infinite), and kobs is the first order rate constant for enzyme inactivation. […] When [I]<<K1, equation 2 is simplified to equation 3, where the kinact/Kl is calculated from the slope, kinact/[Kl(1+[S]/Km)], which is obtained from the kobs vs [I] linear regression fit. […]

[2] = Pharmacokinetics Studies in Dog; type: in vivo; set-up: AUC/dose: unit not given beside the values; details: dogs; for AUC / C0 / clearance / half-life / Cmax: male, beagle, dog, plasma
Description: Pharmacokinetics Studies in Dog Test substances (Examples 2-3) were administered by oral gavage or IV administration to groups of two dogs. The two male dogs were beagles obtained from Marshal Farms, weighing from about 9 to about 12 kg at start of treatment and ranging in age between approximately 4 to approximately 6 years. Blood samples were taken times of 0.25, 0.5, 1, 2, 4, 7, and 24 h after administration and submitted to analysis for the drug substance using an LC-MS-MS assay. Pharmacokinetic parameters derived from the plasma analytical data were determined using Watson 7.2.003.

[3] = Reactive Metabolite Assay; type: in vitro ADME
Description: [formula] Reactive Metabolite Assay Protocol Metabolite activity in Table 2 is measured using a reactive metabolite assay protocol as described in Reactive Metabolite assay protocol: See J. R. Soglia et al., J. Pharm. Biomed. Anal. 2004, 36, 105-116.

[4] = OD370 readout, 37° C., 15-20 h incubation, read-out: hKATII IC50
[5] = IV administration, dose = 0.5 mg/kg
[6] = oral administration, dose 5 mg/kg (Ex 3, 2), 2 mg/kg (Ex 5)

N#Cc1ccc2c(c1)N(O)C(=O)[C@@H](N)C2 [Example 1, (3S)-3-Amino-1-hydroxy-2-oxo-1,2,3,4-tetrahydroquinoline-7-carbonitrile, HCl Salt]
HHEP CLint, app (human hepatocytes): 24.8 μL/min/million | IC50 [1, 4]: 0.019 µM | kinact/KI (human KATII enzyme): 46200 M⁻¹ s⁻¹

COC[C@H](C)Oc1ccc2c(c1)N(O)C(=O)[C@@H](N)C2 [Example 2, (3S)-3-Amino-1-hydroxy-7-[(1S)-2-methoxy-1-methylethoxy]-3,4-dihydroquinolin-2(1H)-one, HCl Salt]
HHEP CLint, app (human hepatocytes): 19.8 μL/min/million | IC50 [1, 4]: 0.018 µM | AUC/dose [2, 5]: 370 | AUC/dose [2, 6]: 39 | Cmax/dose [2, 6]: 46 | AUC [2, 5]: 185 ng·h/mL | C0 [2, 5]: 352 ng/mL | clearance [2, 5]: 44.9 mL/min/kg | half-life [2, 5]: 30 min | AUC [2, 6]: 195 ng·h/mL | Cmax [2, 6]: 229 ng/mL | half-life [2, 6]: 137 min | kinact/KI (human KATII enzyme): 25100 M⁻¹ s⁻¹ | Reactive Metabolite Formation [3]: No

COCCOc1ccc2c(c1)N(O)C(=O)[C@@H](N)C2 [Example 3, (3S)-3-Amino-1-hydroxy-7-(2-methoxyethoxy)-3,4-dihydroquinolin-2(1H)-one, HCl Salt]
HHEP CLint, app (human hepatocytes): 30.1 μL/min/million | IC50 [1, 4]: 0.022 µM | AUC/dose [2, 5]: 388 | AUC/dose [2, 6]: 31.2 | Cmax/dose [2, 6]: 39.6 | AUC [2, 5]: 194 ng·h/mL | C0 [2, 5]: 446 ng/mL | clearance [2, 5]: 43.4 mL/min/kg | half-life [2, 5]: 54 min | AUC [2, 6]: 156 ng·h/mL | Cmax [2, 6]: 198 ng/mL | half-life [2, 6]: 63 min | kinact/KI (human KATII enzyme; 30 nM human KATII enzyme, room temperature): 22300 M⁻¹ s⁻¹ | Reactive Metabolite Formation [3]: No

N[C@H]1Cc2ccccc2N(O)C1=O [Example 4, (3S)-3-Amino-1-hydroxy-3,4-dihydroquinolin-2(1H)-one]
HHEP CLint, app (human hepatocytes): 39.6 μL/min/million | IC50 [1, 4]: 0.027 µM | kinact/KI (human KATII enzyme): 21500 M⁻¹ s⁻¹

CC(C)Oc1ccc2c(c1)N(O)C(=O)[C@@H](N)C2 [Example 5, (3S)-3-Amino-1-hydroxy-7-isopropoxy-3,4-dihydroquinolin-2(1H)-one, HCl Salt]
HHEP CLint, app (human hepatocytes): 44.7 μL/min/million | IC50 [1]: 0.032 µM | AUC/dose [2, 5]: 436 | AUC/dose [2, 6]: 9.3 | Cmax/dose [2, 6]: 9.8 | AUC [2, 5]: 218 ng·h/mL | C0 [2, 5]: 265 ng/mL | clearance [2, 5]: 38.7 mL/min/kg | half-life [2, 5]: 36 min | AUC [2, 6]: 18.6 ng·h/mL | Cmax [2, 6]: 19.6 ng/mL | half-life [2, 6]: 27.6 min | kinact/KI (human KATII enzyme): 17100 M⁻¹ s⁻¹ | Reactive Metabolite Formation [3]: Yes

N#Cc1cccc2c1N(O)C(=O)C(N)C2 (stereo not shown) [Example 6, 3-Amino-1-hydroxy-2-oxo-1,2,3,4-tetrahydroquinoline-8-carbonitrile, HCl Salt]
IC50 [1, 4]: 0.03 µM
